The record followed here is ChEMBL document CHEMBL1201862, “PubChem BioAssay data set” (2004).

Calls of active or inactive are those of the source.

Targets include Cytochrome P450 3A4 (Homo sapiens, UniProt P08684); Cytochrome P450 2D6 (Homo sapiens, UniProt P10635); Cytochrome P450 2C9 (Homo sapiens, UniProt P11712).
The target of assay [1] is Luciferin 4-monooxygenase (Photinus pyralis, UniProt P08659). In words: inhibition of purified Photinus pyralis luciferase – biochemical, luminescence, dose response (AID 1891).
Assay [2] in a line: Luminescence Cell-Based Dose Confirmation HTS to Identify Inhibitors of Platelet Dense Granule Release. [Related pubchem assays: 1663 (Primary HTS), 1678 (Summary of Project)]. The format is functional.
Assay [3] has as its target T1, Ubiquitin-conjugating enzyme E2 N (Homo sapiens, UniProt P61088).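 Note: Dose-response confirmation in a TR-FRET assay detecting UBC13-driven polyubiquitin chain formation, inhibition measured.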
T1 sequence (P61088 whole entry): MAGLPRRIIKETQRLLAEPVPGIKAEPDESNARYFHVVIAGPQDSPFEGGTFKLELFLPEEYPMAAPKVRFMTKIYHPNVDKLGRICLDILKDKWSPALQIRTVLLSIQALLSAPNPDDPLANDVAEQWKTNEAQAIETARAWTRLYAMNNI
The format is functional.

Assay [4] in a line: NIH-3T3 fibroblast cytotoxicity, dose response, cytotoxicity control, cell-based, fluorescence, Alamar Blue, secondary assay (AID 2327).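 Note: NIH-3T3 mouse fibroblasts cultured with fluconazole at 8 µg/mL.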 The format is functional. (Resazurin is reduced to fluorescent resorufin, in cell work by metabolically active cells.)
Assay [5] can be described thus: fluconazole-exposed Candida albicans growth modulators – fluorescence, retest, confirmation (AID 2467). The format is functional, cell-based.
Assay [6] in a line: microbe, parasite or virus in culture. The settings on record: Mycobacterium tuberculosis. Format: functional.
Assay [7] has as its target FAD-linked sulfhydryl oxidase ALR (Homo sapiens, UniProt P55789). In words: ALR-catalysed DTT oxidation blockers – biochemical, H2O2 detection, luminescence, cherry-pick, dose response (AID 493248).
For the next assay, the target named is Cytochrome P450 2C19 (Homo sapiens, UniProt P33261). Briefly: Cytochrome panel assay with activity outcomes. Panel member name: p450-cyp2c19 Compounds with AC50 equal or less than 10 uM are considered active. The format is functional. The settings on record: read-out: AC50.
The target of the next assay is T2, Cytochrome P450 1A2 (Homo sapiens, UniProt P05177).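 Note: PubChem cytochrome P450 panel assay, CYP1A2 panel member.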
T2 sequence (P05177 whole entry): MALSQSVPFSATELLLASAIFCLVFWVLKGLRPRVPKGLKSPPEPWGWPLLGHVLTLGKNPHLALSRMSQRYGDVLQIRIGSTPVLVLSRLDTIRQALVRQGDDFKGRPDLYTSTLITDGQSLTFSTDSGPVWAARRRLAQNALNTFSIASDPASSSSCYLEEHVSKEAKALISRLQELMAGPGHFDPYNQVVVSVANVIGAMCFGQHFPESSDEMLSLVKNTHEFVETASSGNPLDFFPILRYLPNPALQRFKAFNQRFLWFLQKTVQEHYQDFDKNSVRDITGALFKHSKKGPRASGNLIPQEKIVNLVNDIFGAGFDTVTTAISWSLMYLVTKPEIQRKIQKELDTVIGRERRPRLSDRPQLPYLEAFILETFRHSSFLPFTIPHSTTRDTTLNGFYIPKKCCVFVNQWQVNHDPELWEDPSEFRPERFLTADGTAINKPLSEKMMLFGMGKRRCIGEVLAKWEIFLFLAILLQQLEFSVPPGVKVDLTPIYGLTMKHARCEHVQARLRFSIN

For assay [8], the system named is Streptococcus sp. 'group A'. In words: Streptococcus pyogenes SK(-)GAS viability under kanamycin – luminescence, BacTiterGlo, confirmation, counter-screen for streptokinase expression inhibitor project, dose response (AID 1900). The format is functional, organism-based. (The purpose of a counterscreen is to sort out artefacts and off-target activity.)
The test system of a further assay is Streptococcus. In words: GAS UMAA2166 growth inhibition – luminescence, BacTiterGlo, counter-screen for streptokinase expression inhibitor project, dose response (AID 1915).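 Note: potency for reduction of bacterial viability or growth.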 The format is functional, organism-based.
Assay [9] addresses T3, High affinity choline transporter 1 (Homo sapiens, UniProt Q9GZV3).
T3 sequence (Q9GZV3 whole entry): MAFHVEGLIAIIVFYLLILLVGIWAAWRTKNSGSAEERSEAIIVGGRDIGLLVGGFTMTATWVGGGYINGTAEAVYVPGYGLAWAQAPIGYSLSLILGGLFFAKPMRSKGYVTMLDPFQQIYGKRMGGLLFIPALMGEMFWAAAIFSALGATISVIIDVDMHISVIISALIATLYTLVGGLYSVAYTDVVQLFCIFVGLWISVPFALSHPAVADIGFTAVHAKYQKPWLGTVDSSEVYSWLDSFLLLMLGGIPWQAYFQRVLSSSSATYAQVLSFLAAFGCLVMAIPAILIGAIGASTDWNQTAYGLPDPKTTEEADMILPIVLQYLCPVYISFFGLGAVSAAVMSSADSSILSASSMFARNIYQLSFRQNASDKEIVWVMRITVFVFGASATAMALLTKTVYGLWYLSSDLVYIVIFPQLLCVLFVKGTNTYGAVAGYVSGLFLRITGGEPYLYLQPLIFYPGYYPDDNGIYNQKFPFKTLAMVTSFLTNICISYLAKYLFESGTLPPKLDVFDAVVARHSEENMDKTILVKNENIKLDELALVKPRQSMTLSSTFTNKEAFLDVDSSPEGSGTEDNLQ
Briefly: human choline transporter blockers, potency – cell-based, 5-point CRC, membrane potential dye, dose response (AID 504840). The format is functional.

Assay [10] in a line: Trypanosoma cruzi growth suppression in host cells – NIH3T3 host cells, beta-gal luminescence, confirmation (AID 2044).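 Note: intracellular parasites grown in NIH/3T3 mouse fibroblasts as host cells; luminescent beta-galactosidase reporter signal from transgenic T. cruzi replicating inside host cells; inhibitors lower the luminescence signal.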 Format: functional, cell-based.
Assay [11] is described as follows: NIH3T3 cell viability loss – ATP luminescence, mouse fibroblasts, counter-screen, dose response (AID 2010).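 Note: cells exposed to compound for about 90 hours before reading.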 The format is functional, cell-based.
Assay [12] in a line: luciferase reporter signal suppression in cells – H4 neuroglioma cells, luminescence, dose response (AID 1990). The format is functional, cell-based.
Assay [13] in a line: Luminescence Cell-Based Dose Response HTS to Identify Inhibitors of 5'UTR Stem-Loop Driven Prion Protein mRNA Translation in H4 Neuroglioblastoma Cells. [Related pubchem assays: 1827 (Project Summary), 1813 (Primary HTS)]. The format is functional.
The nature of assay [14]: alpha-synuclein stem-loop luciferase translation blockers – H4 neuroglioma cells, luminescence, confirmation (AID 1988). Format: functional, cell-based.

Luciferin 4-monooxygenase, sequence (P08659 whole entry): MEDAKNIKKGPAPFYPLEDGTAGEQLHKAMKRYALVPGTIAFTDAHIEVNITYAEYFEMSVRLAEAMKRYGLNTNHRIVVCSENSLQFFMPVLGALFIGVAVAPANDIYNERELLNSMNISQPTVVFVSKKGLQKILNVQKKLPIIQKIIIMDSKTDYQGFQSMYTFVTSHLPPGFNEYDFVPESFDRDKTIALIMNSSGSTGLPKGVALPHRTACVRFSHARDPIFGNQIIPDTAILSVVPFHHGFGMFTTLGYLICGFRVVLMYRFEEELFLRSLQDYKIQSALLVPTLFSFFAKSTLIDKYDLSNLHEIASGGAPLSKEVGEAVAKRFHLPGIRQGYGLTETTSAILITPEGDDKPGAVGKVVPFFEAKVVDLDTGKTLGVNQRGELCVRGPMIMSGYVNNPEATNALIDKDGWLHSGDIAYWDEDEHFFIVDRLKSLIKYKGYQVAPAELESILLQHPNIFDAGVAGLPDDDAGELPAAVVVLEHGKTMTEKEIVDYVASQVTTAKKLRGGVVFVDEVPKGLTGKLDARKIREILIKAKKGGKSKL
Cytochrome P450 2C9, sequence (P11712 whole entry): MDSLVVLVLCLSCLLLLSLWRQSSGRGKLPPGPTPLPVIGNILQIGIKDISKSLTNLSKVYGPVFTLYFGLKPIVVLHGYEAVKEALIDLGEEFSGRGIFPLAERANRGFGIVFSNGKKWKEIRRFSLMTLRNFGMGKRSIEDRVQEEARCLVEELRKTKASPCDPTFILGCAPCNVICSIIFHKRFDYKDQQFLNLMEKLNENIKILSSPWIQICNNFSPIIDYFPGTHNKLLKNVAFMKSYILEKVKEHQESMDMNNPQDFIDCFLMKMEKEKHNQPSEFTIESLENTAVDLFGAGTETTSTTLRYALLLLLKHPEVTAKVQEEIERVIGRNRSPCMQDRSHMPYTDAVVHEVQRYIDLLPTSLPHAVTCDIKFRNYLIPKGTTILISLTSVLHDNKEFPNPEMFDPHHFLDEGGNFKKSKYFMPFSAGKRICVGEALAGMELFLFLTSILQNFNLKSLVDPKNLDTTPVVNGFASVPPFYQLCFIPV
Cytochrome P450 2D6, sequence (P10635 whole entry): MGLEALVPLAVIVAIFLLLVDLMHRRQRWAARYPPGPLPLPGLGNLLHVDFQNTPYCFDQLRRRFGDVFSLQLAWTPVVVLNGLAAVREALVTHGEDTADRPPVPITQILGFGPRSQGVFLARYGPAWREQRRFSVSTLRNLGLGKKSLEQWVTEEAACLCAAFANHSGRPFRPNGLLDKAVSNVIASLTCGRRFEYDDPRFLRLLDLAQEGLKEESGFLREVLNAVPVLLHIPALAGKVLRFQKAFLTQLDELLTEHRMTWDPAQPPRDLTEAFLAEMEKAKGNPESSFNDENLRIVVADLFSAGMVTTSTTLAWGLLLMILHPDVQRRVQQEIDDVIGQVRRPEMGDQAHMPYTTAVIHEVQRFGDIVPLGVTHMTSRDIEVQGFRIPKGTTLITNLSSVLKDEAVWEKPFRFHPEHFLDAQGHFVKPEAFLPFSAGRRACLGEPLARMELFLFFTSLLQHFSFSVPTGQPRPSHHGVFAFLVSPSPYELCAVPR
Cytochrome P450 2C19, sequence (P33261 whole entry): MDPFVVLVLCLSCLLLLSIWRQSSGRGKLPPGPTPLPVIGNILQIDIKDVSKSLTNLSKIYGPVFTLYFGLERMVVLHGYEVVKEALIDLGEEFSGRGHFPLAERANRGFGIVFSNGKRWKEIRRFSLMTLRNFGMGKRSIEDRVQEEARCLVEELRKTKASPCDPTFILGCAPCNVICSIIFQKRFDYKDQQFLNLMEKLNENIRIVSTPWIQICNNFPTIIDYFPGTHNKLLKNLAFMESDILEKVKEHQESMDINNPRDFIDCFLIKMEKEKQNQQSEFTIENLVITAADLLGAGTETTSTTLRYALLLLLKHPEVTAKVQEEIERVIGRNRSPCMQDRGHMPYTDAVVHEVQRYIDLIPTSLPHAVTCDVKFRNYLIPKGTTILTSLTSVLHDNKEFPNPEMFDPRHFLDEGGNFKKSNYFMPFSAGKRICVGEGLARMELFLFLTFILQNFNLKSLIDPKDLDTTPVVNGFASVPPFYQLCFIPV
Cytochrome P450 3A4, sequence (P08684 whole entry): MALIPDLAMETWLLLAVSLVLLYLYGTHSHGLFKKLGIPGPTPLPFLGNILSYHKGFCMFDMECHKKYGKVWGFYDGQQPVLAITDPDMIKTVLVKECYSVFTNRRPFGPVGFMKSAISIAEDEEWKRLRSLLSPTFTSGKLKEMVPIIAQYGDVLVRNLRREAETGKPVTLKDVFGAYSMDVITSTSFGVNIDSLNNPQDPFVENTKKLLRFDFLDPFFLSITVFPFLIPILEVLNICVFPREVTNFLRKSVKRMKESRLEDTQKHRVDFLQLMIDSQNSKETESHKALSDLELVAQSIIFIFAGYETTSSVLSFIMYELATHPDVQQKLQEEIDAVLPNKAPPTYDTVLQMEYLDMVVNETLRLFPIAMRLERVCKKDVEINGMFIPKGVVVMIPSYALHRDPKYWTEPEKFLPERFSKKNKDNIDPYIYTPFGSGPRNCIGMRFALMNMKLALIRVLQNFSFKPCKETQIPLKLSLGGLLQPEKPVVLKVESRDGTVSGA
FAD-linked sulfhydryl oxidase ALR, sequence (P55789 whole entry): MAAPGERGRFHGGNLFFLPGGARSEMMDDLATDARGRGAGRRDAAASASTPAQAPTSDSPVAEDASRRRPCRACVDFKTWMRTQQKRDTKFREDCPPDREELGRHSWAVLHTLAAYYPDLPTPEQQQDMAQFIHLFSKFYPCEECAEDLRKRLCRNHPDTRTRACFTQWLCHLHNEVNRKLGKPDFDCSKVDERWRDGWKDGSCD

Take `NC(=O)C1(N2CCCCC2)CCN(C(=O)Nc2ccccc2C(F)(F)F)CC1`: the EC50 in [1] and in assay [2] was > 112 µM (not active) throughout.

As to `COc1ccc(-c2cc(C(F)(F)F)nc(SCC(=O)NCCN3CCOCC3)n2)cc1OC`, the EC50 (commonly the concentration needed to bring the measured effect to its halfway point) in [1] is > 112 µM (not active); in [2], 47.9 µM (active).

For the molecule `c1ccc2c(C[C@@H]3CNCCN3CC3CCCCC3)cccc2c1`, in [3], the IC50 – broadly, the concentration at which inhibition is half-maximal – is > 20 µM (inactive).

Regarding `O=C(NCC1CCCO1)c1cc2n(n1)C(C(F)(F)F)CC(c1ccc(Br)cc1)N2` (stereo not given), the EC50 is > 160 µM (inactive) in assay [4] and > 38 µM (not active) in [5].

`CCN(C[C@H]1N[C@@](Cc2ccccc2)(C(=O)OC)[C@H]2C(=O)N(Cc3ccccc3)C(=O)[C@@H]12)C(=O)Nc1ccc(C(F)(F)F)cc1`: in [6], the CC50 is 39.5 µM (active).

Take `CN(C)C=O.CNC(=O)CSc1nc2nc(C)cc(C)n2n1`: the EC50 in assay [1] and in assay [2] was > 112 µM (not active) in each case.

`COc1ccc(CSc2[nH]c(C)nc2[N+](=O)[O-])cc1[N+](=O)[O-]`: in assay [7], the AC50 (commonly the concentration giving half of the maximal activity seen) is 0.02 µM (active).

Consider `CCCC(/C=C/c1ccc(OC(C)=O)cc1)=C1/c2ccccc2C(=O)N1c1ccccc1`, for which, in assay [6], the CC50 was 12.8 µM (active).

In the case of `COc1ccccc1/C=C/CN1CCCC(CO)(Cc2cccc(Cl)c2)C1` (stereo not given), the EC50 in assay [1] and in assay [2] was > 112 µM (not active) in each case.

`CCCc1cc(=O)oc2cc(OCC(=O)N3CCc4ccccc43)ccc12`: the EC50 in assay [1] and in [2] was > 112 µM (not active) throughout. Moreover, on Cytochrome P450 2C19, the AC50 is 1 µM (inconclusive).

`CC(C)CCNCC(=O)NC(c1ccccc1)c1ccccc1`: the EC50 in [4] was > 160 µM (inactive); in assay [5] it was > 38 µM (not active).

For `Nc1ncnc2c1ncn2C1CCCC1`, the AC50 was 20 µM (inconclusive) on Cytochrome P450 1A2 and 0.0398 µM (inconclusive) at Cytochrome P450 3A4.

In the case of `CCOCCN1CCN(c2c(CC)c(C)nc3cc(-c4cc(OC)cc(OC)c4)nn23)CC1`, in [6], the CC50 was > 40 µM (active).

As to `CCOc1cc(N2CCOCC2)c(OCC)cc1NC(=O)c1nc2nc(C)cc(C)n2n1`, the EC50 was > 160 µM (inactive) in assay [4] and > 38 µM (not active) in assay [5].

With `C=C(C)COc1ccc(-c2[nH]nc(C)c2-c2ccccc2)c(O)c1`, the EC50 in assay [4] was 93.6 µM (active); in assay [8], 9.45 µM (active); in assay [5], 2.67 µM (active); with Streptococcus, 16.4 µM (active).

Take `CCc1ccccc1NC(=O)C1C(c2ccccc2)C1(Cl)Cl` (stereo not given): the results for the concentration at half-maximal activity (AC50) on Cytochrome P450 2D6, at Cytochrome P450 1A2 and on Cytochrome P450 2C9 were 11.2 µM (inconclusive), 17.8 µM (inconclusive) and 20 µM (inconclusive), respectively.

Regarding `CC1(C)CC(=O)C2=C(C1)N(c1ccccc1)C(=O)CC2c1ccsc1` (stereo not given), the EC50 in assay [1] and in [2] was > 112 µM (not active) each time.

Regarding `C#CCOCCOCCOCCNc1nc(N2CCOCC2)nc(N2CCN(C(=O)CCCCCCCCCCNC(=O)[C@H]([C@@H](C)CC)n3cc(CCCCN=C(N)N)nn3)CC2)n1`, the IC50 in assay [3] is > 20 µM (inactive).

For `Cc1ccc(-c2csc3ncnc(Nc4ccc(N5CCOCC5)cc4)c23)cc1`, in assay [6], the CC50 is > 40 µM (active).

With `O=C(Nc1nc2ccc(S(=O)(=O)N3CCCCC3)cc2s1)c1ccncc1`, the values for the EC50 in [4] and in assay [5] were 130 µM (active) and 1.95 µM (active), respectively.

For the molecule `Clc1cccc(-c2cc3nc4c(c(NCc5ccco5)n3n2)CCCC4)c1`, the CC50 in [6] is 23.7 µM (active).

`O=C(Nc1cccnc1)c1cc(-c2ccc(Cl)c(Cl)c2)on1`: the EC50 in [1] and in assay [2] was > 112 µM (not active) in each case.

Turning to `CCn1cc([N+](=O)[O-])c(C(=O)N2N=C(c3ccc4ccccc4c3)CC2c2ccccc2O)n1` (stereo not given), in [6], the CC50 is 33.1 µM (active).

On to `O=C(NC1CCCCCCC1)c1ccc(S(=O)(=O)N2CCCC2)cc1`, for which the IC50 in [9] was 14.5 µM (active).

Consider `O=C(NCc1ccccc1)C(c1cccnc1)N(C(=O)c1ccccn1)c1ccccc1F` (stereo not given), for which the EC50 in assay [1] and in assay [2] was > 112 µM (not active) in each case.

As for `OCc1ccccc1OCCOc1ccc(Cl)c2cccnc12`, in assay [9], the IC50 was 11.5 µM (active).

As for `Cc1ccc(C(=O)C[n+]2cccc3ccccc32)cc1`, the EC50 in [10] is 32.4 µM (active); in assay [11], > 60 µM (not active). Besides, the IC50 in assay [9] was 13.8 µM (active).

As for `CS(=O)(=O)N1CCC[C@@]2(CCN(c3ccccc3)C2)C1`, the figures for the AC50 on Cytochrome P450 1A2 and on Cytochrome P450 2C9 were 31.6 µM (inconclusive) and 25.1 µM (inconclusive), respectively.

For the molecule `COc1cc2c(C(=O)N3CCN(c4cccc(Cl)c4)CC3)cn(CC(C)C)c(=O)c2cc1OC`, in assay [6], the CC50 is > 40 µM (active).

Consider `COc1ccc(Nc2cc3n(c(=O)n2)CCc2cc(OC)c(OC)cc2-3)cc1`, for which the results for the EC50 in assay [1] and in assay [2] were > 112 µM (not active) and 4.68 µM (active), respectively.

As to `COc1ccc(Nc2cc3n(c(=O)n2)CCc2cc(OC)c(OC)cc2-3)c(C)c1`, the EC50 in [12] was 17.3 µM (active); in assay [13] it was 41.3 µM (active); in assay [14] it was 35.6 µM (active); in [1], > 112 µM (not active); in [2] it was 0.987 µM (active).

On to `COc1cc2sc(-c3ccc(S(C)(=O)=O)cc3)c(C(=O)NCCCCO)c2cc1OC`, for which, in assay [3], the IC50 is > 20 µM (inactive).

In the case of `O=C(CC(CC(=O)c1ccc(Cl)cc1)c1ccccc1C(=O)O)c1ccc(Cl)cc1`, in [9], the IC50 was 13.8 µM (active).

For `CCn1cc(C(=O)N2CCCCC2)c(=O)c2cc(S(=O)(=O)N3CCC(C)CC3)ccc21`, the IC50 in [9] is 16.2 µM (active).

For `CCOC(=O)c1ccccc1N/C=C/C(=O)c1cccs1`, the IC50 in assay [9] is 13.2 µM (active).

For the molecule `CCOc1cc(/C=N/NC(=O)CN2CCCCC2)ccc1OCc1cccc(Cl)c1`, the IC50 in assay [9] is 14.5 µM (active).

`CCOc1ccccc1Nc1cc2n(c(=O)n1)CCc1cc(OC)c(OC)cc1-2`: the EC50 was 47.8 µM (active) in assay [12]; 30.7 µM (active) in assay [13]; 9.81 µM (active) in assay [14]; > 112 µM (not active) in assay [1]; 1.23 µM (active) in assay [2].

For the molecule `CC[N+](CC)(CCCNC1=CC(=O)C(NCCC[N+](CC)(CC)Cc2ccccc2)=CC1=O)Cc1ccccc1` [BENZOQUINONIUM], the AC50 on Cytochrome P450 1A2 was 31.6 µM (inconclusive).

As to `Nc1ccn([C@@H]2O[C@H](CO)[C@@H](O)C2O)c(=O)n1` (stereo not given in full) [CYTARABINE], in assay [6], the CC50 was 1.8 µM (active).
